# In patent publication US6211439A, “Herbicide resistance in plants” (MGI Pharma, Inc, priority 1995, dated 2001):
# Where two headings read alike, the source gives them in different places.
# Experiments:
# [1] = system: acetohydroxyacid synthase (AHAS); assay: AHAS activity assay, extract of maize cell cultures / control tissue; assay type: biochemical
# Protocol: Plant cell culture material was ground with sand in a cold mortar and pestle in an equal quantity (w/v) of cell disruption media containing 0.05 M potassium phosphate (pH 7.0), 0.1 mM MgSO4, and 0.5 mM dithiothreitol. The preparation was centrifuged at 11,000×g for 20 minutes and the supernatant assayed for AHAS activity. Assays were conducted in 1 ml volumes containing 0.05 M potassium phosphate (pH 8.0), 40 mM pyruvate, 5 mM MgCl2, 0.1 mM thiamine pyrophosphate, 0.2 ml cell extract, and various concentrations of the herbicide of interest. The reaction mixtures were incubated at 30° C. for 75 minutes and the reaction terminated with the addition of 0.1 ml of 50% (v/v) H2 SO4. […] To 0.2 ml of reaction mixture, 0.8 ml of water, 0.5 ml of 0.5% (w/v) creatine, and 0.5 ml of 5% (w/v) naphthol in 10% (w/v) NaOH was added. After mixing, solutions were incubated at room temperature for one hour.
# [2] = system: maize cell suspension cultures; assay: Reversal of herbicide growth inhibition by leucine, valine and isoleucine; assay type: cell-based; set-up: key to Cell suspension culture growth, (+) 997: settled cell volume, ml per 10 ml of suspension
# Protocol: (§1) Growth inhibition studies were carried out in 125 ml flasks containing 30 ml of test media. 997 was filter sterilized and added to cooling media following autoclaving. Test media were innoculated with cells to give a settled cell volume (15 minutes without centrifugation) of 0.2 ml per 10 ml of suspension. After either six or seven days growth settled cell volumes were again quantitated.
# Cells were tested to determine whether the herbicide induced inhibition of growth was the result of the decreased availability of the three branched chain amino acids. Cells were exposed to toxic levels of 997 (1×10^-6 M) in media either supplemented with 1 mM concentrations of leucine, valine, and isoleucine or with no supplementation. Culture growth rates in the absence of amino acid supplementation and in the presence of 1×10^-6 M 997 were reduced to 16% that of herbicide free cultures.
# Experiments were conducted to determine the optimum supplementation levels of each of the three amino acids to obtain maximum herbicide protection and for gaining insight into the site of action of the compound.
# [3] = system: Black Mexican Sweet Corn cell suspension cultures; assay: Growth inhibition of maize cell suspension cultures; assay type: cell-based
# Protocol: Nonregenerable Black Mexican Sweet Corn cell suspension cultures (i.e., cell cultures which lack the ability to regenerate plants) were obtained from Dr. Burle Gengenbach, Department of Agronomy and Plant Genetics, University of Minnesota, St. Paul, Minn. Stock cell cultures were maintained in liquid Murashige and Skoog (MS) medium (Murashige and Skoog, 1962, Physiol. Plant 15: 473) containing 2 mg of 2,4-dichlorophenoxyaceticacid (2,4-D) per liter, and subcultured weekly by diluting to 1/10 the original volume with fresh medium. Cultures were grown in the dark at 26° C. in 500 ml flasks containing 125 ml media.
# as §1
# To determine whether the effects of 214 were reversible, Black Mexican Sweet Corn cells growing in liquid suspension culture were exposed to 0.03 mg per liter 214 for various periods of time up to 72 hours. […] The cells were then washed with herbicide-free media and the growth rate evaluated again in the absence of herbicide.
# [4] = system: unselected maize callus tissue; assay: Callus culture growth inhibition, unselected tissue; assay type: cell-based; conditions: for IC50: Zea mays, 336 h
# Protocol: Therefore the effects of 214 were determined on callus growth. Quantities of tissue averaging 90 mg in size were transferred to nutrient agar maintenance media containing concentrations of 214 ranging from 0.003 to 3 mg per liter. Eight tissue pieces were placed on each plate with three plates per herbicide concentration. After 14 days growth, the tissue was weighed again.
# [5] = system: AHAS activity of line XA17 tissue; assay: AHAS activity assay, line XA17 tissue; assay type: biochemical, maize; conditions: for IC50: AHAS activity of line XA17 tissue, read-out: concentration inhibiting AHAS activity 50%; for change in herbicide sensitivity of AHAS, line XA17 vs control, on a concentration basis: maize
# Protocol: Assays were conducted as a modification of the procedure of Smith et al. (1979, Molec. Gen. Genet. 169: 299-314). Plant cell culture material was ground with sand in a cold mortar and pestle in an equal quantity (w/v) of cell disruption media containing 0.05 M potassium phosphate (pH 7.0), 0.1 mM MgSO4, and 0.5 mM dithiothreitol. The preparation was centrifuged at 11,000×g for 20 minutes and the supernatant assayed for AHAS activity. Assays were conducted in 1 ml volumes containing 0.05 M potassium phosphate (pH 8.0), 40 mM pyruvate, 5 mM MgCl2, 0.1 mM thiamine pyrophosphate, 0.2 ml cell extract, and various concentrations of the herbicide of interest. The reaction mixtures were incubated at 30° C. for 75 minutes and the reaction terminated with the addition of 0.1 ml of 50% (v/v) H2 SO4. Following further incubation at 40° C. for 20 minutes, the acetoin formed from acetolactate by acidification was quantitated using the method of Westerfield (1945, J. Biol. Chem. 161: 495). To 0.2 ml of reaction mixture, 0.8 ml of water, 0.5 ml of 0.5% (w/v) creatine, and 0.5 ml of 5% (w/v) naphthol in 10% (w/v) NaOH was added. After mixing, solutions were incubated at room temperature for one hour. The development of pink color was quantitated by measuring light absorbance at 530 nm.
# Assays were conducted to determine if acetohydroxyacid synthase extracted from line XA17 tissue was altered with respect to herbicide sensitivity. Such a change would signify that an alteration of this enzyme conferred the herbicide resistance. Assays were conducted as described supra.
# [6] = system: Callus tissue from line UV18; assay: Callus growth inhibition, line UV18; assay type: cell-based, maize; conditions: for Callus Growth Fold Increase in Tolerance: line UV18 vs control tissue, based on herbicide amount giving 50% reduction in growth rate
# Protocol: The UV18 cell line was first observed after 25 weeks of selection comprising 9 subculture intervals. The tissue in the selection procedure had been exposed to 0.1 mg per liter 214 for four subculture intervals followed by exposure to 0.3 mg per liter 214 for four subculture intervals. UV18 was identified during the ninth subculture as a rapidly growing sector of tissue with good morphology.
# Callus tissue from line QJ22 was tested also with the compound 567. The numbers represent the fold increase in herbicide concentration that can be tolerated by each of the cell lines as compared to control tissue. The values were calculated based on the amount of herbicide that gave a 50% reduction in growth rate.
# [7] = AHAS activity of control tissue, read-out: concentration inhibiting AHAS activity 50%
# [8] = read-out: level giving a 50% growth inhibition
smiles,measurement,setting,value
"CC(C)C1(C)NC(c2ncccc2C(=O)O)=NC1=O (centres unmarked) [compound 997, 2-(5-isopropyl-5-methyl-4-oxo-2-imidazolin-2-yl)nicotinic acid]",IC50,"[1]; AHAS activity from maize cell cultures, read-out: concentration reducing AHAS enzyme activity 50%",8 µM
same,IC50,[1]; [7],1 to 10 µM
same,"Cell suspension culture growth, (+) 997",[2]; 0.3 ile,.33
same,"Cell suspension culture growth, (+) 997",[2]; 0.3 leu,.29
same,"Cell suspension culture growth, (+) 997",[2]; 0.3 val,.48
same,Culture growth rate relative to control cultures,"[2]; 1×10^-6 M 997, media supplemented with 1 mM leucine, valine, and isoleucine",91%
same,"effect of media supplementation with leucine, valine, isoleucine on growth inhibition",[2]; 997 ranging in concentration from 1×10^-8 to 1×10^-3 M,could reverse the growth inhibitory effects
same,"Cell suspension culture growth, (+) 997","[2]; Leucine, Valine, Isoleucine 1,1,1",1.88
same,"Cell suspension culture growth, (+) 997","[2]; Leucine, Valine, Isoleucine 1,1,.1",.93
same,"Cell suspension culture growth, (+) 997","[2]; Leucine, Valine, Isoleucine 1,1,.3",1.55
same,"Cell suspension culture growth, (+) 997","[2]; Leucine, Valine, Isoleucine 1,.1,1",1.28
same,"Cell suspension culture growth, (+) 997","[2]; Leucine, Valine, Isoleucine 1,.1,.1",1.03
same,"Cell suspension culture growth, (+) 997","[2]; Leucine, Valine, Isoleucine 1,.1,.3",1.38
same,"Cell suspension culture growth, (+) 997","[2]; Leucine, Valine, Isoleucine 1,.3,1",1.45
same,"Cell suspension culture growth, (+) 997","[2]; Leucine, Valine, Isoleucine 1,.3,.1",.98
same,"Cell suspension culture growth, (+) 997","[2]; Leucine, Valine, Isoleucine 1,.3,.3",1.40
same,"Cell suspension culture growth, (+) 997","[2]; Leucine, Valine, Isoleucine .1,1,1",.60
same,"Cell suspension culture growth, (+) 997","[2]; Leucine, Valine, Isoleucine .1,1,.1",.83
same,"Cell suspension culture growth, (+) 997","[2]; Leucine, Valine, Isoleucine .1,1,.3",.68
same,"Cell suspension culture growth, (+) 997","[2]; Leucine, Valine, Isoleucine .1,.1,1",.58
same,"Cell suspension culture growth, (+) 997","[2]; Leucine, Valine, Isoleucine .1,.1,.1",.70
same,"Cell suspension culture growth, (+) 997","[2]; Leucine, Valine, Isoleucine .1,.1,.3",.68
same,"Cell suspension culture growth, (+) 997","[2]; Leucine, Valine, Isoleucine .1,.3,1",.80
same,"Cell suspension culture growth, (+) 997","[2]; Leucine, Valine, Isoleucine .1,.3,.1",.75
same,"Cell suspension culture growth, (+) 997","[2]; Leucine, Valine, Isoleucine .1,.3,.3",.90
same,"Cell suspension culture growth, (+) 997","[2]; Leucine, Valine, Isoleucine .3,1,1",1.30
same,"Cell suspension culture growth, (+) 997","[2]; Leucine, Valine, Isoleucine .3,1,.1",1.08
same,"Cell suspension culture growth, (+) 997","[2]; Leucine, Valine, Isoleucine .3,1,.3",1.30
same,"Cell suspension culture growth, (+) 997","[2]; Leucine, Valine, Isoleucine .3,.1,1",.80
same,"Cell suspension culture growth, (+) 997","[2]; Leucine, Valine, Isoleucine .3,.1,.1",.70
same,"Cell suspension culture growth, (+) 997","[2]; Leucine, Valine, Isoleucine .3,.1,.3",.95
same,"Cell suspension culture growth, (+) 997","[2]; Leucine, Valine, Isoleucine .3,.3,1",1.08
same,"Cell suspension culture growth, (+) 997","[2]; Leucine, Valine, Isoleucine .3,.3,.1",.95
same,"Cell suspension culture growth, (+) 997","[2]; Leucine, Valine, Isoleucine .3,.3,.3",1.18
same,"Cell suspension culture growth, (+) 997",[2]; No Supplementation (4 replicates),0.30
same,activity at 1 µM,"[2]; Zea mays, 1×10^-6 M 997, absence of amino acid supplementation, read-out: Culture growth rate relative to herbicide free cultures",16%
same,herbicide concentration giving 50% growth inhibition,"[3]; suspension cultures, concentration in the media, settled cell volume after six or seven days",1 to 3×10^-8 M
same,IC50,[4]; [8],0.1 to 0.3 µg/mL
same,IC50,[5],3000 to 30000 µM
same,"change in herbicide sensitivity of AHAS, line XA17 vs control, on a concentration basis",[5],≥ 1000 fold
same,Callus Growth Fold Increase in Tolerance,[6],100 fold
"CC(C)C1(C)NC(c2nc3ccccc3cc2C(=O)O)=NC1=O (centres unmarked) [compound 214, 2-(5-isopropyl-5-methyl-4-oxo-2-imidazolin-2-yl)3-quinolinecarboxylic acid]",effect on AHAS enzyme activity,[1]; AHAS activity from maize cell cultures,inhibited the enzyme activity
same,IC50,[1]; [7],1 to 10 µM
same,"effect of media supplementation with leucine, isoleucine, valine on growth inhibition","[2]; 1 mM each of leucine, isoleucine, and valine, cell suspension cultures",reversed the growth inhibitory effects
same,Growth of cells in liquid suspension culture,"[3]; 0.03 mg per liter 214, up to 72 hours",completely inhibited
same,growth rate after washing with herbicide-free media,[3]; after exposure to 0.03 mg per liter 214 up to 72 hours,rapidly return to an uninhibited growth rate
same,Cell death,"[4]; 14 day period, 0.003 to 3 mg per liter",not observed to occur
same,IC50,[4]; read-out: concentration giving half maximal inhibition of callus growth rate,0.1 to 0.3 µg/mL
same,IC50,[4]; [8],0.1 to 0.3 µg/mL
same,IC50,[5],3000 to 30000 µM
same,"change in herbicide sensitivity of AHAS, line XA17 vs control, on a concentration basis",[5],≥ 1000 fold
same,growth of UV18 tissue in presence of herbicide,"[6]; 0.3 mg per liter 214, vs control tissue in the absence of herbicide",grew as rapidly
same,Callus Growth Fold Increase in Tolerance,[6],100 fold
